In patent US20140024663A1, “ATB(0,+) AMINO ACID TRANSPORTER AS A DRUG TARGET FOR TREATMENT OF ESTROGEN RECEPTOR-POSITIVE BREAST CANCER” (GEORGIA HEALTH SCIENCES UNIVERSITY RESEARCH INSTITUTE, INC., priority 2012, published 2014):

Experiments:
MB231 cells = assay: Analysis of autophagy (LC3 localization); assay type: cell-based, human; conditions: MB231, α-MT 2.5 mM, 48 h
Experimental: (§1) FIGS. 6A to 6C. Effects of SLC6A14 blockade with α-MT in breast cancer cells. In FIG. 6A, MCF10A (a non-malignant mammary epithelial cell line), MCF7 (an ER-positive breast cancer cell line), and MB231 (an ER-negative breast cancer cell line) cells were treated with or without 2.5 mM α-MT for 24, 48, or 72 h and then used for analysis of asparagine synthetase (ASNS) and CHOP mRNA levels. In FIG. 6B, MCF7, MB231 and MCF10A cells were treated with or without 2.5 mM α-MT for 48 h and then used for immunocytochemical analysis of the constitutively expressed LC-3. In FIG. 6C, MCF7 cells were treated with (“b” and “c”) or without (“a”) α-MT (2.5 mM) for 48 h and then used for electron microscopy. […]
(§2) Analysis of autophagy. Autophagy was analyzed as described previously (Periyasamy-Thandavan et al., 2010, Autophagy; 6:19-35; and Samaddar et al., 2008, Mol Cancer Ther; 7:2977-2987) by monitoring the localization pattern of constitutively expressed LC3 as well as that of ectopically expressed GFP-LC3. […] At the end of the treatment, cells were fixed with 4% paraformaldehyde and examined by fluorescence microscopy to count the number of cells with punctate GFP-LC3. Autophagosomal proteolysis was quantified as described previously (Periyasamy-Thandavan et al., 2010, Autophagy; 6:19-35). […]

MCF10A cells = assay: Analysis of autophagy (LC3 localization); assay type: cell-based, human; conditions: α-MT 2.5 mM, 48 h
Experimental: as §1, §2

[1] = Measurement of α-MT in mouse plasma by HPLC; assay type: in vivo, Balb/c nude mice; conditions: mice, two weeks of administration in drinking water (2 mg/ml)
Experimental: FIGS. 10A to 10D. In vivo efficacy of α-MT in the treatment of ER-positive breast cancer. ZR75.1 (FIG. 10A), MCF7 (FIG. 10B), and MB-231 (FIG. 10C) cells were injected subcutaneously (sc) into Balb/c nude mice (10×10^6 cells per injection site). For MCF7 cells, slow-releasing estrogen pellets were implanted to support the tumor growth. For each cell line, the control group received water with sucrose and the treatment group received α-MT (2 mg/ml) in water with sucrose. Tumor size was measured periodically. NS, not statistically significant (p>0.05); *, p<0.005; two-tailed unpaired Student's t test. In FIG. 10D, Balb/c nude mice were divided into two groups; the control group received water with sucrose and the treatment group received α-MT (2 mg/ml) in water with sucrose for 2 weeks. Mice were then bled and α-MT in plasma was determined by HPLC.
Measurement of α-MT in mouse plasma. Balb/c nude mice were divided into two groups; the control group received water with sucrose and the treatment group received α-MT (2 mg/ml) in water with sucrose for 2 weeks. Mice were then bled and α-MT in plasma was determined by HPLC as described by Laich et al (Laich et al., 2002, Clin Chem; 48:579-581).

CC(N)(Cc1c[nH]c2ccccc12)C(=O)O (racemic) [α-MT, α-methyl-DL-tryptophan]
autophagy (LC3 localization) (MB231 cells): did not undergo autophagy
autophagy (LC3 localization) (MCF10A cells): did not undergo autophagy
plasma concentration of α-MT [1]: 8.5 ± 0.5 µM
